From ChEMBL document CHEMBL1147078, “Triptolide is a traditional Chinese medicine-derived inhibitor of polycystic kidney disease” (Proc Natl Acad Sci U S A, 2007)
Activity calls are given as the source filed them. No cut-off for these calls is given here.

What was measured:
Mus musculus [1] = experiment: Effect on Pkd1+/- and Pkd1+/- inter crossed mouse assessed as decrease in kidney cyst burden in […] genotypic embryos at 0.07 mg/kg, ip from E10.5 stage to untill birth relative to control; type: functional, organism-based; set-up: dose 0.07 mg/kg
Mus musculus [2] = organism: Mus musculus; experiment: Increase in PC2 dependent calcium release in mouse Pkd1+/- cells at 100 nM; type: functional, cell-based
Mus musculus [3] = experiment: Toxicity in C57BL/6 mouse embryos at […], ip; type: organism-based; set-up: route intraperitoneal; settings: in vivo
Mus musculus [4] = organism: Mus musculus; experiment: Growth inhibition of PC2 expressing mouse Pkd2+/- cells as cell death at 100 nM after 24 hrs; type: functional
Mus musculus [5] = experiment: Toxicity in C57BL/6 mouse embryos at >=0.1 mg/kg/day, ip; type: organism-based; settings: in vivo
Mus musculus [6] = organism: Mus musculus; experiment: Increase in PC2 dependent calcium release in mouse Pkd1-/- cells at 100 nM; type: functional, cell-based
Mus musculus [7] = organism: Mus musculus; experiment: Increase in calcium release in mouse Pkd1-/- cells at 50 uM in presence of RyR antagonist dantrolene; type: functional, cell-based
[8] = Growth inhibition of mouse Pkd2-/- PC2-null cells assessed as cell viability at 100 nM after 24 hrs; type: functional; settings: read-out: Activity
Mus musculus [9] = organism: Mus musculus; experiment: Induction of cell growth arrest in mouse Pkd1-/- cells in presence of calcium; type: functional, cell-based
[10] = Growth inhibition of PC2 reconstituted mouse Pkd2-/- cells assessed as cell death at 100 nM after 24 hrs; type: functional; set-up: scale not given: the % may be the effect or the level left
Mus musculus [11] = organism: Mus musculus; experiment: Increase in calcium release in mouse Pkd2-/- cells at 100 nM; type: functional, cell-based
Mus musculus [12] = organism: Mus musculus; experiment: Increase in p21CIP/WAF expression in mouse Pkd1-/- cells at 100 nM after 96 hrs by Western blot analysis; type: functional, cell-based
Pkd = experiment: Increase in calcium response in mouse Pkd cells at […]; type: functional, cell-based
[13] = Growth inhibition of mouse Pkd2-/- PC2-null cells assessed as cell death at 100 nM after 48 hrs; type: functional; set-up: scale not given: the % may be the effect or the level left

Compound: CC(C)[C@]12O[C@H]1[C@@H]1O[C@]13[C@]1(O[C@H]1C[C@H]1C4=C(CC[C@@]13C)C(=O)OC4)[C@@H]2O [TRIPTOLIDE]
- Activity (Mus musculus [1]): Active
- Activity (Mus musculus [2]): Active
- Activity (Mus musculus [3]): Non-toxic
- Activity (Mus musculus [4]): Active
- Activity (Mus musculus [5]): Toxic
- Activity (Mus musculus [6]): Active
- Activity (Mus musculus [7]): Active
- viability at 0.1 µM [8]: > 90%
- Activity (Mus musculus [9]): Active
- Activity [10]: >80%
- Activity (Mus musculus [11]): inactive
- Activity (Mus musculus [12]): Active
- Activity (Pkd): inactive
- Activity [13]: >50%
